Key:
[1] = biological target: T1, Arabidopsis HPPD (SEQ ID NO:53) (Arabidopsis thaliana, UniProt P93836); assay: HPPD activity assay (HGA by HPLC), wildtype enzyme; assay type: biochemical; conditions: Arabidopsis enzyme
T1 construct: His6 (N); made in house; host or cells: E. coli BL21 (DE3)
T1 sequence (P93836 1-445): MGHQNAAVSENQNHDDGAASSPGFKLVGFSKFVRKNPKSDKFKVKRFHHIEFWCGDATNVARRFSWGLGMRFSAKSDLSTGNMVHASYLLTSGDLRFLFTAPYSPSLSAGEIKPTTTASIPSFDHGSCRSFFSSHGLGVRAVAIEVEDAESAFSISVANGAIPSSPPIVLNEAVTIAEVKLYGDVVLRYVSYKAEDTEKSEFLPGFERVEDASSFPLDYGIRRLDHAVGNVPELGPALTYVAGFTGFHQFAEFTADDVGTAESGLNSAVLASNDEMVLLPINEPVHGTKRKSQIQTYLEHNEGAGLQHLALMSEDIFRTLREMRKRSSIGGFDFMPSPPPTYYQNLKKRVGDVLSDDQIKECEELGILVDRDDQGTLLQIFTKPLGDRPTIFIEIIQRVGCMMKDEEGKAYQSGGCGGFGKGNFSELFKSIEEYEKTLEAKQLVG
Procedure: (§1) HPPD produces homogentisic acid and CO2 from 4-hydroxyphenylpyruvate (4-HPP) and O2. The activity assay for HPPD is based on the analysis of homogentisic acid by reversed phase HPLC.
(§2) The assay mixture can contain 150 mM potassium phosphate buffer pH 7.0, 50 mM L-ascorbic acid, 100 μM Catalase (Sigma-Aldrich), 1 μM FeSO4 and 0.2 units of purified HPPD enzyme in a total volume of 505 μl. 1 unit is defined as the amount of enzyme that is required to produce 1 nmol of HGA per minute at 20° C.
(§3) After a preincubation of 30 min the reaction is started by adding 4-HPP to a final concentration of 0.05 mM. The reaction is allowed to proceed for 45 min at room temperature. The reaction is stopped by the addition of 50 μl of 4.5 M phosphoric acid. The sample is filtered using a […] pore size PVDF filtration device.
(§4) 5 μl of the cleared sample is analyzed on an UPLC HSS T3 column (particle size 1.8 μm, dimensions 2.1×50 mm; Waters) by isocratic elution using 90% 20 mM NaH2PO4 pH 2.2, 10% methanol (v/v).
(§5) HGA is detected electrochemically at 750 mV (mode: DC; polarity: positive) and quantified by integrating peak areas (Empower software; Waters).
(§6) Inhibitors are dissolved in DMSO (dimethylsulfoxide) to a concentration of 0.5 mM. From this stock solution serial five-fold dilutions are prepared in DMSO, which are used in the assay. The respective inhibitor solution accounts for 1% of the assay volume. […] Activities are normalized by setting the uninhibited enzyme activity to 100%. IC50 values are calculated using non-linear regression.
(§7) Using methods which are described in the above examples or well known in the art, purified, recombinant wildtype HPPD enzymes are characterized with respect to their kinetic properties and sensitivity towards HPPD inhibiting herbicides. Apparent michaelis constants (Km) and maximal reaction velocities (Vmax) are calculated by non-linear regression with the software GraphPad Prism 5 (GraphPad Software, La Jolla, USA) using a substrate inhibition model. […] Weighted means (by standard error) of Km and IC50 values are calculated from at least three independent experiments.
(§8) Field performance of the HPPD enzyme, which is used as a herbicide tolerance trait may depend not only on its lack of sensitivity towards HPPD inhibiting herbicides but also on its activity. To assess the potential performance of a herbicide tolerance trait a tolerance index (TI) is calculated using the following formula: […]
(§9) Easy comparison and ranking of each trait is enabled by normalizing tolerance indexes on Arabidopsis wild-type HPPD.

[2] = biological target: T2, Hordeum HPPD (SEQ ID NO:2) (Hordeum vulgare, UniProt O48604, A164G/R146V/R147D/R148G); assay: HPPD activity assay (HGA by HPLC), wildtype enzyme; assay type: biochemical; conditions: Hordeum enzyme
T2 construct: subcloned into a modified pET24D (Novagen) expression vector resulting in N-terminally His-tagged expression constructs; His tag (N); made in house; host or cells: E. coli BL21 (DE3)
Procedure: as §1, §2, §3, §4, §5, §6, §7, §8, §9

[3] = system: Arabidopsis wild-type control plants; assay: Arabidopsis germination/growth inhibition assay in 48-well plates; assay type: in vivo, Arabidopsis thaliana; conditions: plant growth IC50 relative to wildtype
Procedure: (§10) Tolerance to N-heterocyclyl-arylcarboxamides can also be assessed in Arabidopsis. In this case transgenic Arabidopsis thaliana plants are assayed for improved tolerance to N-heterocyclyl-arylcarboxamides in 48-well plates. Seeds are surface sterilized by stirring for 5 min in ethanol+water (70+30 by volume), rinsing one time with ethanol+water (70+30 by volume) and two times with a sterile, deionized water. The seeds are resuspended in 0.1% agar dissolved in water (w/v). Four to five seeds per well are plated on solid nutrient medium consisting of half-strength Murashige Skoog nutrient solution, pH 5.8 (Murashige and Skoog (1962) Physiologia Plantarum 15: 473-497). Compounds are dissolved in dimethylsulfoxid (DMSO) and added to the medium prior solidification (final DMSO concentration 0.1%). Multi well plates are incubated in a growth chamber at 22° C., 75% relative humidity and 110 μmol Phot*m-2*s-1 with 14:10 h light: dark photoperiod. Seven to ten days after seeding growth inhibition is evaluated by comparison to wild type plants. Tolerance factor is calculated by dividing the plant growth IC50 value of transgenic plants containing a HPPD and/or HST sequence by that of wildtype plants.

[4] = system: transgenic Arabidopsis plants overexpressing HPPD (Seq ID: 53); assay: as above; assay type: in vivo, Arabidopsis thaliana; conditions: plant growth IC50 of transgenic divided by wildtype; HPPD (Seq ID: 53) overexpression
Procedure: as §10

[5] = apparent michaelis constant, read-out: Km [μM] (4-HPP)

T2 sequence (O48604 whole entry R146V/R147D/R148G/A164G): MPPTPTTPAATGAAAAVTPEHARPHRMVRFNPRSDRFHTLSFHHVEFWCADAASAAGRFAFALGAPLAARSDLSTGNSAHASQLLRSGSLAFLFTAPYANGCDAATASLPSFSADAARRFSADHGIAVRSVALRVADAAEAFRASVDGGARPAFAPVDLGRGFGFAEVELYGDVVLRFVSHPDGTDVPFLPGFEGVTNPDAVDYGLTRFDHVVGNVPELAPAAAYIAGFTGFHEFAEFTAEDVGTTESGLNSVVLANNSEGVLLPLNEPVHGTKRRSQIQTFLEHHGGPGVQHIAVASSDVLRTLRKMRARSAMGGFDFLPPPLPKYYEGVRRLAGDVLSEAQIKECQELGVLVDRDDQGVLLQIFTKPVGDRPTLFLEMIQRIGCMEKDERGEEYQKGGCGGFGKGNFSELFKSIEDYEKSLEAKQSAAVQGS

SMILES	Km [1, 5] [µM]	kcat ([1]; turnover number) [s⁻¹]	Km [2, 5] [µM]	kcat ([2]; turnover number) [s⁻¹]	Tolerance factor towards Inhibitor 2 [3]	Tolerance factor towards Inhibitor 2 [4]
O=C(O)C(=O)Cc1ccc(O)cc1 [Inhibitor 4-HPP, 4-hydroxyphenylpyruvate, reference compound]	13	12.9	26	11.5		
COc1nonc1NC(=O)c1ccc(S(C)(=O)=O)c(S(C)(=O)=O)c1C [Inhibitor 2, N-(4-methoxy-1,2,5-oxadiazol-3-yl)-2-methyl-3,4-bis(methylsulfonyl)benzamide]					1	12

— patent US10829778B2, “Plants having increased tolerance to herbicides” (BASF SE, priority 2013, dated 2020)
